Experiments:
sperms = test: Spermicidal test: semen on a slide glass mixed with a drop of liquid, observed with an optical microscope; format: cell-based
Text: The present inventor discovered a surprising fact for the first time that distilled water is an excellent spermicide.
EXPERIMENT 1: The fact that distilled water is an excellent spermicide was proven experimentally as follows: (1) One drop of semen was spread on a slide glass with a cotton swab and active movements of sperms were confirmed. (2) Upon mixing with a drop of distilled water, 100% of sperms stood still immediately. […] All sperms might be dead by explosive expansion of the sperm cell. While not wishing to be bound by any particular theory, the inventor believes that this is due to a lot of water smeared into the cell due to the difference in osmotic pressure between the cell and distilled water.
(3) Upon decreasing the viscosity by adding several drops of saline solution, the sperms regained their original activity.
EXPERIMENT 4: The fact that polymer solutions made from distilled water and water-soluble polymers exterminated sperms was verified experimentally as follows: (1) One drop of semen was spread on a slide glass with a cotton swab and active movements of sperms were confirmed. (2) Upon mixing with a drop of water-soluble polymer solution, all sperms came to a standstill without any movement in their heads or tails. […]

[1] = Physical blocking wall test: pigments and dye rubbed on coated, incised swine vaginal segments, then rinsed and scrubbed
Text: EXPERIMENT 6: Two pigments whose particle size distributions correspond to sizes of STD-causing germs including HIV (diameter=125 nm) were chosen. The blue pigment (PIG-1) had the particle size distribution of 100-20,000 nm, while the violet pigment (PIG-2) had the particle size distribution of 30-500 nm. For the purpose of comparison, a blue dye ink (DYE) (molecular diameter=2.7 nm) was used as well. Instead of the human vagina, the swine vagina was used. […] Then, the vaginal segments in the left column were wetted with water, while those in the second, the third, the fourth and the fifth column were applied with corn syrup (SYRUP, 55% maltose), a composition made from polyvinyl alcohol (PVA-gel), a composition made from sodium carboxymethyl cellulose (SCMC-gel) and a composition made from hydroxyethyl cellulose (HEC-gel), respectively, as shown in FIG. 2B. After that, the blue pigment (PIG-1) was applied on the vaginal segments in the upper row, while the violet pigment (PIG-2) and the blue dye ink (DYE) were applied on the vaginal segments in the middle and the lower row, respectively, as shown in FIG. 2C. The pigments and the dye ink applied on the vaginal segments were rubbed 50 times violently with the index finger being pressed in an attempt to simulate the frictional movement of coitus. Thereafter that, they were scrubbed off and cleansed out with the vaginal scrubbing sponge of the present invention as shown in FIG. 6.

SMILES | sperm activity upon later addition of saline solution (sperms; saline solution added after mixing with the liquid) | sperms stood still immediately upon mixing (sperms; semen on slide glass mixed with drop(s) of the liquid) [%] | pigments left on incisions ([1]; incisions, after rinsing and scrubbing) | blue dye ink (molecular diameter 2.7 nm) left after being rinsed and scrubbed ([1]; intact vaginal surfaces and incisions) | pigments (PIG-1, PIG-2; 30-20,000 nm) left on vaginal segments after rinsing ([1]; intact vaginal surfaces and incisions, rubbed 50 times, rinsed with running water, then scrubbed)
O [distilled water] | failed to show any activity | 100 |  |  | 
O [water] |  |  | remained heavily | remained heavily | still remained
